Results: patent US11390604B2 (Hoffmann-La Roche Inc., priority 2019, dated 2022)
Counter-ions that a name gives are not always drawn.

What follows are compounds tested on Acinetobacter baumannii ATCC 17961 (assay: Antimicrobial susceptibility testing: 90% growth inhibitory concentration (IC90) determination). Details: ATCC17961, Acinetobacter baumannii ATCC 17961, Iso-Sensitest broth, read-out: ATCC 17961 IC90.
Format: cell-based
Outline: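 Broth microdilution in Iso-Sensitest medium, twofold series (e.g. 50 to 0.097 μM final), ~5×10^5 CFU/ml inoculum, 35±2 °C. OD600 read every 20 min over 16 h. IC90 derived from growth inhibition during logarithmic phase.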

SMILES | IC90 [nM]
Cn1c(-c2cn([C@H]3CC3(F)F)nc2C(F)(F)F)cnc1C(=O)Nc1ccc(C(=O)N[C@H]2[C@@H]3CN(C(=O)N[C@@H]4CNC[C@H]4O)C[C@@H]32)c(Cl)c1 [Example 182, (1S,5R)-6-[[2-chloro-4-[[5-[1-[(1S)-2,2-difluorocyclopropyl]-3-(trifluoromethyl)pyrazol-4-yl]-1-methyl-imidazole-2-carbonyl]amino]benzoyl]amino]-N-[(3R,4R)-4-hydroxypyrrolidin-3-yl]-3-azabicyclo[3.1.0]hexane-3-carboxamide] | 110
Cn1c(-c2cn(C3CC3(F)F)nc2C(F)(F)F)cnc1C(=O)Nc1ccc(C(=O)N[C@H]2[C@@H]3CN(C(=O)N4CCNCC4)C[C@@H]32)c(Cl)c1 (stereo partly drawn) [Example 184, N-(3-chloro-4-(((1R,5S,6s)-3-(piperazine-1-carbonyl)-3-azabicyclo[3.1.0]hexan-6-yl)carbamoyl)phenyl)-5-(1-(2,2-difluorocyclopropyl)-3-(trifluoromethyl)-1H-pyrazol-4-yl)-1-methyl-1H-imidazole-2-carboxamide] | 136
C=C(F)Cn1cc(-c2cnc(C(=O)Nc3ccc(C(=O)NCCCCCN)c(Cl)c3)n2C)c(C(F)(F)F)n1 [Example 185, N-(4-((5-aminopentyl)carbamoyl)-3-chlorophenyl)-5-(1-(2-fluoroallyl)-3-(trifluoromethyl)-1H-pyrazol-4-yl)-1-methyl-1H-imidazole-2-carboxamide hydrochloride] | 148
Cn1c(-c2cn(C3CC3)nc2C(F)(F)F)cnc1C(=O)Nc1ccc(C(=O)NCCCCCCN)c(Cl)c1 [Example 187, N-(4-((6-aminohexyl)carbamoyl)-3-chlorophenyl)-5-(1-cyclopropyl-3-(trifluoromethyl)-1H-pyrazol-4-yl)-1-methyl-1H-imidazole-2-carboxamide hydrochloride] | 151
Cn1c(-c2cn(CC(F)F)nc2C(F)(F)F)cnc1C(=O)Nc1ccc(S(=O)(=O)N2CCNCC2)c(Cl)c1 [Example 188, N-(3-chloro-4-(piperazin-1-ylsulfonyl)phenyl)-5-(1-(2,2-difluoroethyl)-3-(trifluoromethyl)-1H-pyrazol-4-yl)-1-methyl-1H-imidazole-2-carboxamide hydrochloride] | 152
CN(CCCCN)C(=O)c1ccc(NC(=O)c2ncc(-c3cn(C4CC4)nc3C(F)(F)F)n2C)cc1Cl [Example 190, N-(4-((4-aminobutyl)(methyl)carbamoyl)-3-chlorophenyl)-5-(1-cyclopropyl-3-(trifluoromethyl)-1H-pyrazol-4-yl)-1-methyl-1H-imidazole-2-carboxamide hydrochloride] | 173
Cn1c(-c2cn(C3CC3)nc2C(F)(F)F)cnc1C(=O)Nc1ccc(C(=O)N2CCC(CCN)CC2)c(Cl)c1 [Example 191, N-(4-(4-(2-aminoethyl)piperidine-1-carbonyl)-3-chlorophenyl)-5-(1-cyclopropyl-3-(trifluoromethyl)-1H-pyrazol-4-yl)-1-methyl-1H-imidazole-2-carboxamide formate] | 176
Cn1c(-c2cn(C3CC3(F)F)nc2C(F)(F)F)cnc1C(=O)Nc1ccc(C(=O)NC2CC3(CC(N)C3)C2)c(Cl)c1 (stereo not shown) [Example 193, N-(4-((6-aminospiro[3.3]heptan-2-yl)carbamoyl)-3-chlorophenyl)-5-(1-(2,2-difluorocyclopropyl)-3-(trifluoromethyl)-1H-pyrazol-4-yl)-1-methyl-1H-imidazole-2-carboxamide formate] | 188
Cn1c(-c2cn(CC3CC3)nc2C(F)(F)F)cnc1C(=O)Nc1ccc(C(=O)N2CCN(C(=O)[C@H]3[C@@H]4CNC[C@@H]43)CC2)c(F)c1 [Example 194, rac-N-(4-(4-((1R,5S,6r)-3-azabicyclo[3.1.0]hexane-6-carbonyl)piperazine-1-carbonyl)-3-fluorophenyl)-5-(1-(cyclopropylmethyl)-3-(trifluoromethyl)-1H-pyrazol-4-yl)-1-methyl-1H-imidazole-2-carboxamide hydrochloride] | 193
Cn1c(-c2cn(C3CC3)nc2C(F)(F)F)cnc1C(=O)Nc1ccc(C(=O)N2CC[C@H](CN)C2)c(Cl)c1 [Example 195, (R)-N-(4-(3-(aminomethyl)pyrrolidine-1-carbonyl)-3-chlorophenyl)-5-(1-cyclopropyl-3-(trifluoromethyl)-1H-pyrazol-4-yl)-1-methyl-1H-imidazole-2-carboxamide hydrochloride] | 202
Cn1c(-c2cn(C3CC3(F)F)nc2C(F)(F)F)cnc1C(=O)Nc1ccc(C(=O)NCC2CC3CNCC3C2)c(Cl)c1 (stereo not shown) [Example 196, N-(3-chloro-4-(((octahydrocyclopenta[c]pyrrol-5-yl)methyl)carbamoyl)phenyl)-5-(1-(2,2-difluorocyclopropyl)-3-(trifluoromethyl)-1H-pyrazol-4-yl)-1-methyl-1H-imidazole-2-carboxamide formate] | 202
Cn1c(-c2cn(C3CC3)nc2C(F)(F)F)cnc1C(=O)Nc1ccc(C(=O)N2CCC(C3CNC3)CC2)c(Cl)c1 [Example 197, N-(4-(4-(azetidin-3-yl)piperidine-1-carbonyl)-3-chlorophenyl)-5-(1-cyclopropyl-3-(trifluoromethyl)-1H-pyrazol-4-yl)-1-methyl-1H-imidazole-2-carboxamide formate] | 202
Cn1c(-c2cn(CC(F)F)nc2C(F)(F)F)cnc1C(=O)Nc1ccc(S(=O)(=O)N2CCN(C(=O)[C@H]3C[C@H](O)CN3)CC2)c(Cl)c1 [Example 198, N-(3-chloro-4-((4-((2R,4S)-4-hydroxypyrrolidine-2-carbonyl)piperazin-1-yl)sulfonyl)phenyl)-5-(1-(2,2-difluoroethyl)-3-(trifluoromethyl)-1H-pyrazol-4-yl)-1-methyl-1H-imidazole-2-carboxamide hydrochloride] | 207
C=C(C)Cn1cc(-c2cnc(C(=O)Nc3ccc(C(=O)NCCCCN)c(Cl)c3)n2C)c(C(F)(F)F)n1 [Example 199, N-(4-((4-aminobutyl)carbamoyl)-3-chlorophenyl)-1-methyl-5-(1-(2-methylallyl)-3-(trifluoromethyl)-1H-pyrazol-4-yl)-1H-imidazole-2-carboxamide tris(2,2,2-trifluoroacetate)] | 213
Cn1c(-c2cn(C3CC3)nc2C(F)(F)F)cnc1C(=O)Nc1ccc(C(=O)N2CCN(C(=O)CN)CC2)c(Cl)c1 [Example 200, N-(3-chloro-4-(4-glycylpiperazine-1-carbonyl)phenyl)-5-(1-cyclopropyl-3-(trifluoromethyl)-1H-pyrazol-4-yl)-1-methyl-1H-imidazole-2-carboxamide hydrochloride] | 215
Cn1c(-c2cn(C3CC3(F)F)nc2C(F)(F)F)cnc1C(=O)Nc1ccc(C(=O)N2CCC(F)(CN)CC2)c(Cl)c1 (stereo not shown) [Example 201, N-(4-(4-(aminomethyl)-4-fluoropiperidine-1-carbonyl)-3-chlorophenyl)-5-(1-(2,2-difluorocyclopropyl)-3-(trifluoromethyl)-1H-pyrazol-4-yl)-1-methyl-1H-imidazole-2-carboxamide formate] | 216
Cn1c(-c2cn(CC3CCC3)nc2C(F)(F)F)cnc1C(=O)Nc1ccc(C(=O)N2CCN(C(=O)CN)CC2)c(Cl)c1 [Example 202, N-(3-chloro-4-(4-glycylpiperazine-1-carbonyl)phenyl)-5-(1-(cyclobutylmethyl)-3-(trifluoromethyl)-1H-pyrazol-4-yl)-1-methyl-1H-imidazole-2-carboxamide hydrochloride] | 216
Cn1c(-c2cn(CC3CC3)nc2C(F)(F)F)cnc1C(=O)Nc1ccc(C(=O)N2CCN(C(=O)N[C@H]3C[C@@H](N)C3)CC2)c(Cl)c1 [Example 203, rac-N-((1s,3s)-3-aminocyclobutyl)-4-(2-chloro-4-(5-(1-(cyclopropylmethyl)-3-(trifluoromethyl)-1H-pyrazol-4-yl)-1-methyl-1H-imidazole-2-carboxamido)benzoyl)piperazine-1-carboxamide] | 222
Cn1c(-c2cn(C3CC3(F)F)nc2C(F)(F)F)cnc1C(=O)Nc1ccc(N2CCCC2=O)cc1 (stereo not shown) [Example 204, 5-(1-(2,2-difluorocyclopropyl)-3-(trifluoromethyl)-1H-pyrazol-4-yl)-1-methyl-N-(4-(2-oxopyrrolidin-1-yl)phenyl)-1H-imidazole-2-carboxamide] | 223
C=C(C)Cn1cc(-c2cnc(C(=O)Nc3ccc(C(=O)NCCCCCN)c(Cl)c3)n2C)c(C(F)(F)F)n1 [Example 205, N-(4-((5-aminopentyl)carbamoyl)-3-chlorophenyl)-1-methyl-5-(1-(2-methylallyl)-3-(trifluoromethyl)-1H-pyrazol-4-yl)-1H-imidazole-2-carboxamide hydrochloride] | 224
Cn1c(-c2cn(CC3CC3)nc2C(F)(F)F)cnc1C(=O)Nc1ccc(C(=O)N2CCN(C(=O)[C@@H]3CC[C@@H](N)C3)CC2)c(Cl)c1 [Example 206, N-(4-(4-((1R,3R)-3-aminocyclopentane-1-carbonyl)piperazine-1-carbonyl)-3-chlorophenyl)-5-(1-(cyclopropylmethyl)-3-(trifluoromethyl)-1H-pyrazol-4-yl)-1-methyl-1H-imidazole-2-carboxamide] | 224

Same assay, conditions: Acinetobacter baumannii, ATCC17961, read-out: ATCC 17961 IC90, Acinetobacter baumannii ATCC 17961, Iso-Sensitest broth

SMILES | IC90 [nM]
Cn1c(-c2cn([C@H]3CC3(F)F)nc2C(F)(F)F)cnc1C(=O)Nc1ccc(C(=O)N[C@H]2[C@@H]3CN(C(=O)N[C@H]4CNC[C@@H]4O)C[C@@H]32)c(Cl)c1 [Example 183, (1S,5R)-6-[[2-chloro-4-[[5-[1-[(1S)-2,2-difluorocyclopropyl]-3-(trifluoromethyl)pyrazol-4-yl]-1-methyl-imidazole-2-carbonyl]amino]benzoyl]amino]-N-[(3S,4S)-4-hydroxypyrrolidin-3-yl]-3-azabicyclo[3.1.0]hexane-3-carboxamide; Hydrochloride] | 170
